Structures can show the parent of a compound that is named as a salt.

The target in this assay is T1, epithelial sodium channel (ENaC) (Homo sapiens, UniProt P37088+P51168+P51170).
T1 construct: host or cells: primary human bronchial epithelial cells (HBECs), differentiated at the air-liquid interface
T1 sequence (P37088 1-669): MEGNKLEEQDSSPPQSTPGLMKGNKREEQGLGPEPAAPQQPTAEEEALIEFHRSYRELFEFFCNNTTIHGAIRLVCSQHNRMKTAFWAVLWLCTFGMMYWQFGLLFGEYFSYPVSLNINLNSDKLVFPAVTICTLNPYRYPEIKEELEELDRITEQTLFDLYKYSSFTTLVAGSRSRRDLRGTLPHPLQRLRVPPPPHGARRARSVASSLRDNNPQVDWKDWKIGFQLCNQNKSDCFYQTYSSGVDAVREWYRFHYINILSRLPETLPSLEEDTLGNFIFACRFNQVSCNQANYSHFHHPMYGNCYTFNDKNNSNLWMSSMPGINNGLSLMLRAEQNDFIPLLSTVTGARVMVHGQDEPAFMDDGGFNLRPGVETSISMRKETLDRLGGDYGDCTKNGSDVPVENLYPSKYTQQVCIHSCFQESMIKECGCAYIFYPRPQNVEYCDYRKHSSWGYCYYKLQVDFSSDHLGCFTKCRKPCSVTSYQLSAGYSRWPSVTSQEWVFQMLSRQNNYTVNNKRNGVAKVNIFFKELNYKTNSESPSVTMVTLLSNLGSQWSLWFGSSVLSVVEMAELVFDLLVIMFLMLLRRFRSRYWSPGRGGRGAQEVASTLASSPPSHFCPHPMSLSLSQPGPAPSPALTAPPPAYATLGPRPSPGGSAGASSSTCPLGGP
T1 sequence (P51168 1-640): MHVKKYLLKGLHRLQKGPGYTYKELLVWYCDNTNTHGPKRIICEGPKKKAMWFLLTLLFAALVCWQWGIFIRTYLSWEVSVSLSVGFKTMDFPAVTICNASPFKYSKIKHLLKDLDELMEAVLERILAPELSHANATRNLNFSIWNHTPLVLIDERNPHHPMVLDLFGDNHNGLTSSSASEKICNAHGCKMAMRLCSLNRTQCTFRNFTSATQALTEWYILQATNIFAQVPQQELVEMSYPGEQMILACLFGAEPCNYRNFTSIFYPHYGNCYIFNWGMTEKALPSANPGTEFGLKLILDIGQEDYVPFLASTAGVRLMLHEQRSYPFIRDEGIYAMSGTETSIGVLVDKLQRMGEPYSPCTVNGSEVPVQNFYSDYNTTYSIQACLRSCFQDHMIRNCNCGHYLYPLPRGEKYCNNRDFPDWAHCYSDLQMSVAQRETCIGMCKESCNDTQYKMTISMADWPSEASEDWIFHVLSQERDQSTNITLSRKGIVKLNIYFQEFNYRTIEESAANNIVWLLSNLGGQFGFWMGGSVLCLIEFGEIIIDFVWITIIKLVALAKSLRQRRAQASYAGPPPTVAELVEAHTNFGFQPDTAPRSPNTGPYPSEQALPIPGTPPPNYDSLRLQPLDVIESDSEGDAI
T1 sequence (P51170 1-649): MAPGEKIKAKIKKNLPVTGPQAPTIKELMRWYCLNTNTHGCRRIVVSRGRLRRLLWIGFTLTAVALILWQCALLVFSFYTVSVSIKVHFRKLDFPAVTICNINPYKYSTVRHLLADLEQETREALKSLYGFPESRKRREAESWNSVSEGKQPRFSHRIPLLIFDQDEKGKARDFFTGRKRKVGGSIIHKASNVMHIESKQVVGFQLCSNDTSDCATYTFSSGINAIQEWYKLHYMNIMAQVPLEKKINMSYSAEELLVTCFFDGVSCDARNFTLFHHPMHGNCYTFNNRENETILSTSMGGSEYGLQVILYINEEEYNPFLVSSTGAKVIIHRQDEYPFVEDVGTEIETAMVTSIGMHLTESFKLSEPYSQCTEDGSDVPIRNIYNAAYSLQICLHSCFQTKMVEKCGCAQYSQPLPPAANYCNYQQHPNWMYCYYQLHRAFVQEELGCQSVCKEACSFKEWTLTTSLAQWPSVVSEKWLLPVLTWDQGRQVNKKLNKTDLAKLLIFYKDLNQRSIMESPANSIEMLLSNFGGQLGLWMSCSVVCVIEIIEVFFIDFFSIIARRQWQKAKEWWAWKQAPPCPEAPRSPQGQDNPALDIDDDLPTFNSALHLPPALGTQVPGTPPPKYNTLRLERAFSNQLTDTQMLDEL
In words: Short circuit current (ISC) measurements in human bronchial epithelial cells, inhibition of amiloride-sensitive ISC. The assay is classed as cell-based. The following applies: inhibition of the amiloride-sensitive ISC; HBECs cultured at air-liquid interface, Ussing chamber, compound added to apical chamber. How it is done: Compounds of formula (I), hereinafter referred to alternatively as “agents of the invention”, are useful as pharmaceuticals. In particular, the compounds have good ENaC blocker activity and may be tested in the following assays.
Human Bronchial Epithelial cells (HBECs) (Cambrex) were cultured under air-liquid interface conditions to provide a well differentiated mucociliary phenotype.
HBECs were cultured using a modification of the method described by Gray and colleagues (Gray et al., 1996). Cells were seeded in plastic T-162 flasks and were grown in bronchial epithelial cell growth medium (BEGM; Cambrex) supplemented with bovine pituitary extract (52 μg/mL), hydrocortisone (0.5 μg/mL), human recombinant epidermal growth factor (0.5 ng/mL), epinephrine (0.5 μg/mL), transferrin (10 μg/mL), insulin (5 μg/mL), retinoic acid (0.1 μg/mL), triiodothyronine ([…]), gentamycin (50 μg/mL) and amphotericin B (50 ng/mL). Medium was changed every 48 hours until cells were 90% confluent. Cells were then passaged and seeded (8.25×10^5 cells/insert) on polycarbonate Snapwell inserts (Costar) in differentiation media containing 50% DMEM in BEGM with the same supplements as above but without triiodothyronine and a final retinoic acid concentration of 50 nM (all-trans retinoic acid). Cells were maintained submerged for the first 7 days in culture, after which time they were exposed to an apical air interface for the remainder of the culture period. At this time, media was changed to DMEM:F12 media containing 2% v/v Ultroser G for the remainder of culture. Amphotericin B was removed from all media 3 feeds prior to use in the Ussing Chambers. Cells were used between days 7 and 21 after establishment of the apical-air interface. At all stages of culture, cells were maintained at 37° C. in 5% CO2 in an air incubator.
Snapwell inserts were mounted in Vertical Diffusion Chambers (Costar) and were bathed with continuously gassed Ringer solution (5% CO2 in O2; pH 7.4) maintained at 37° C. containing (in mM): 120 NaCl, 25 NaHCO3, 3.3 KH2PO4, 0.8 K2HPO4, 1.2 CaCl2, 1.2 MgCl2, and 10 glucose. The solution osmolarity was between 280 and 300 mOsmol/kg H2O for all physiological salt solutions used. Cells were voltage clamped to 0 mV (model EVC4000; WPI). RT was measured by applying a 1- or 2-mV pulse at 30-s intervals and calculating RT by Ohm's law. Data were recorded using a PowerLab workstation (ADInstruments).
Test compounds were prepared as a 10 mM stock solution in DMSO (95%). Serial 3-fold dilutions were freshly prepared in an appropriate vehicle (distilled H2O or Ringers solution). The initial concentration was added to the apical chamber as a 1000× concentrate in 5 μL, resulting in a final 1× concentration the 5 mL volume of the Ussing chamber. Subsequent additions of compound were added in a 3.3 μL volume of the 1000× serially diluted stock solution. At the completion of the concentration-response experiment, amiloride (10 μM) was added into the apical chamber to enable the total amiloride-sensitive current to be measured. An amiloride control IC50 was established at the start of each experiment.
Results are expressed as the mean % inhibition of the amiloride-sensitive ISC. Concentration-response curves were plotted and IC50 values generated using GraphPad Prism 3.02. Cell inserts were typically run in duplicate and the IC50 calculated on the mean % inhibition data.
With `CCC[C@H](CNC(=O)c1nc(Cl)c(N)nc1N)[N+](C)(C)C` [Example 1, ((R)-1-{[(3,5-Diamino-6-chloro-pyrazine-2-carbonyl)-amino]-methyl}-butyl)-trimethyl-ammonium iodide], inhibition was half-maximal at 250 nM (IC50).
The compound `CCC[C@@H](CNC(=O)c1nc(Cl)c(N)nc1N)[N+](C)(C)C` [Example 5, ((S)-1-{[(3,5-Diamino-6-chloro-pyrazine-2-carbonyl)-amino]-methyl}-butyl)-trimethyl-ammonium trifluoroacetate] showed an IC50 of 20 nM.
Take `C[N+](C)(C)C1(CNC(=O)c2nc(Cl)c(N)nc2N)CCCC1` [Example 9, (1-{[(3,5-Diamino-6-chloro-pyrazine-2-carbonyl)-amino]-methyl}-cyclopentyl)-trimethyl-ammonium iodide]: the IC50 was 3460 nM.
Compound `C[N+]1(C)CCC[C@@H]1CNC(=O)c1nc(Cl)c(N)nc1N` [Example 11, (R)-2-{[(3,5-Diamino-6-chloro-pyrazine-2-carbonyl)-amino]-methyl}-1,1-dimethyl-pyrrolidinium iodide] showed a half-maximal inhibitory concentration (IC50) of 5320 nM.
As for `C[N+](C)(C)[C@H](CNC(=O)c1nc(Cl)c(N)nc1N)Cc1ccccc1` [Example 13, {(S)-1-Benzyl-2-[(3,5-diamino-6-chloro-pyrazine-2-carbonyl)-amino]-ethyl}-trimethyl-ammonium iodide], half-maximal inhibition (IC50) was put at 170 nM.
`C[N+](C)(C)[C@@H](CCCCNC(=O)CCc1ccc(OCc2ccccc2)cc1)CNC(=O)c1nc(Cl)c(N)nc1N` [Example 14, ((S)-5-[3-(4-Benzyloxy-phenyl)-propionylamino]-1-{[(3,5-diamino-6-chloro-pyrazine-2-carbonyl)-amino]-methyl}-pentyl)-trimethyl-ammonium iodide] displayed an IC50 of 46 nM.
In the case of `C[N+](C)(C)[C@@H](CCCCNC(=O)Cc1ccc(OCc2ccccc2)cc1)CNC(=O)c1nc(Cl)c(N)nc1N` [Example 15, ((S)-5-[2-(4-Benzyloxy-phenyl)-acetylamino]-1-{[(3,5-diamino-6-chloro-pyrazine-2-carbonyl)-amino]-methyl}-pentyl)-trimethyl-ammonium iodide], half-maximal inhibition (IC50) required 52 nM.
Next, `C[N+]1(CCNC(=O)c2nc(Cl)c(N)nc2N)CCC(Cc2ccccc2)CC1` (stereo not drawn) [Example 16, 4-Benzyl-1-{2-[(3,5-diamino-6-chloro-pyrazine-2-carbonyl)-amino]-ethyl}-1-methyl-piperidinium iodide]: 640 nM; `C=CC[N+](CCCc1ccc(OC)cc1)(CCCc1ccc(OC)cc1)CCNC(=O)c1nc(Cl)c(N)nc1N` [Example 17, Allyl-{2-[(3,5-diamino-6-chloro-pyrazine-2-carbonyl)-amino]-ethyl}-bis-[3-(4-methoxy-phenyl)-propyl]-ammonium trifluoroacetate]: 7.5 nM; `COc1ccc(CCC[N+](CCCc2ccc(OC)cc2)(CCCc2ccc(OC)cc2)CCNC(=O)c2nc(Cl)c(N)nc2N)cc1` [Example 18, {2-[(3,5-Diamino-6-chloro-pyrazine-2-carbonyl)-amino]-ethyl}-tris-[3-(4-methoxy-phenyl)-propyl]-ammonium trifluoroacetate]: 37 nM.
On to `CCN(CC)CC[N+](CCCc1ccc(OC)cc1)(CCCc1ccc(OC)cc1)CCNC(=O)c1nc(Cl)c(N)nc1N` [Example 19, {2-[(3,5-Diamino-6-chloro-pyrazine-2-carbonyl)-amino]-ethyl}-(2-diethylamino-ethyl)-bis-[3-(4-methoxy-phenyl)-propyl]-ammonium trifluoroacetate], for which the IC50 stood at 20 nM. This IC50 is about 1.9-fold lower than that of the compound before.
The result for `COc1ccc(CCC[N+](C)(CCCc2ccc(OC)cc2)CCNC(=O)c2nc(Cl)c(N)nc2N)cc1` [Example 20, {2-[(3,5-diamino-6-chloro-pyrazine-2-carbonyl)-amino]-ethyl}-bis-[3-(4-methoxy-phenyl)-propyl]-methyl-ammonium trifluoroacetate] reads 2 nM.

(Values after patent US8236808B2, “Pyrazine derivatives as ENAC blockers” (Novartis AG, priority 2008, dated 2012).)
